Data: patent publication US20240226117A1, “TREATMENT OF CONGENITAL ADRENAL HYPOPLASIA” (ReveraGen BioPharma, Inc., priority 2021, published 2024)

Tested on: DMD participants
Experiment: Physician-reported adverse events in vamorolone trials and published corticosteroid studies
Format: in vivo, human
Experimental: Study visits took place quarterly, including assessment of clinical laboratory results, vital signs, and AEs. All AEs were coded using the Medical Dictionary for Regulatory Activities (MedDRA version 19.0) system for reporting (preferred term and system organ class). Clinical efficacy assessments were performed at baseline of the VBP15-002 study, at six months (end of VBP15-003 study), and the 12-month midpoint visit of the VBP15-LTE study.
Treatment-emergent AEs (TEAEs) have been published for the 2-week treatment MAD study (VBP15-002) and the 24-week dose-finding extension study (VBP15-003). TEAEs were reported with similar incidence by participants in all four vamorolone groups.
A Data and Safety Monitoring Board report on the VBP15-LTE study covering all participants enrolled in the VBP15-LTE study (inclusive beyond the 12-month midpoint assessment) included three serious AEs (2 myoglobinuria events [in the same participant] and one pneumonia), all deemed unrelated to study drug. For all reported TEAEs, 402 were deemed unrelated to vamorolone, 37 were deemed remotely related, 29 were deemed possibly related, 11 were deemed probably related, and three were deemed definitely related. Of the 14 AEs probably and definitely related to vamorolone, 10 were weight gain, 2 were increased appetite, 1 was Cushingoid features, and 1 was irritability.
The incidences of physician-reported AEs typically for corticosteroid treatment were determined for participants that had been treated with vamorolone 6.0 mg/kg/day (for any duration), taken from the March 2019 Data Safety Update Report (DSUR) (pharmacovigilance report). Incidence rates of Cushingoid features, weight gain, hirsutism, and behavior change were studied (Table 8).

[1] = 6.0 mg/kg/day vamorolone (any duration), n = 38, DSUR 13 Mar. 2019

Question: For `C[C@@H]1C[C@H]2[C@@H]3CCC4=CC(=O)C=C[C@]4(C)C3=CC[C@]2(C)[C@@]1(O)C(=O)CO` [Vamorolone, 17α,21-dihydroxy-16α-methylpregna-1,4,9(11)-triene-3,20-dione], which “Incidence of physician-reported Cushingoid” value [1] is on record?
Answer: 2.6%

Question: What about the “Incidence of physician-reported behavior change” value [1] of the same molecule?
Answer: 0%^2

Question: And the “Incidence of physician-reported hypertrichosis/hirsutism” value [1]?
Answer: 0%

Question: What about the “Incidence of physician-reported weight gain” value [1] of the same molecule?
Answer: 13.2%

Question: What about the “Cushingoid features among the 14 AEs probably and definitely related” value (VBP15-LTE) of the same molecule?
Answer: 1

Question: And the “increased appetite among the 14 AEs probably and definitely related” value (VBP15-LTE)?
Answer: 2

Question: And the “irritability among the 14 AEs probably and definitely related” value (VBP15-LTE)?
Answer: 1

Question: And the “weight gain among the 14 AEs probably and definitely related” value (VBP15-LTE)?
Answer: 10

Question: And the “TEAEs deemed definitely related” value (VBP15-LTE, all reported TEAEs)?
Answer: three

Question: What about the “TEAEs deemed possibly related” value (VBP15-LTE, all reported TEAEs) of the same molecule?
Answer: 29

Question: And the “TEAEs deemed probably related” value (VBP15-LTE, all reported TEAEs)?
Answer: 11

Question: What about the “TEAEs deemed remotely related” value (VBP15-LTE, all reported TEAEs) of the same molecule?
Answer: 37

Question: And the “TEAEs deemed unrelated to vamorolone” value (VBP15-LTE, all reported TEAEs)?
Answer: 402

Question: What about the “serious AEs in VBP15-LTE (Data and Safety Monitoring Board report)” value (all LTE participants, all deemed unrelated to study drug) of the same molecule?
Answer: three

Question: And the “safety and tolerability over the 24-week treatment period (VBP15-003)” value (oral, all doses tested (0.25, 0.75, 2.0, 6.0 mg/kg/day))?
Answer: safe and well-tolerated
